# Data: the SangsterLogP compilation
# Assay: method code SF-HPLC, from DOI: 10.1016/j.bmc.2003.11.030, PMID: 14759727
# Settings: pH 7.4
row,Structure (SMILES),logD
1,Clc1ccc2[nH]c(NCCc3c[nH]cn3)nc2c1,2.31
2,FC(F)(F)c1ccc2[nH]c(NCCCc3c[nH]cn3)nc2c1,3.03
3,FC(F)(F)c1ccc2[nH]c(NCCc3c[nH]cn3)nc2c1,2.82
4,O=[N+]([O-])c1ccc2[nH]c(NCCc3c[nH]cn3)nc2c1,1.81
5,CCOC(=O)c1ccc2[nH]c(NCCc3c[nH]cn3)nc2c1,2.28

# Same assay, conditions: pH 11.0
row,Structure (SMILES),logD
1,CCCCc1ccc2[nH]c(NCCc3c[nH]cn3)nc2c1,3.64
2,c1nc(CCNc2nc3cc4c(cc3[nH]2)OCO4)c[nH]1,1.44
3,CNC(=O)c1ccc2[nH]c(NCCc3c[nH]cn3)nc2c1,0.48
4,Cc1ccc2[nH]c(NCCCc3c[nH]cn3)nc2c1,2.26
5,c1ccc2[nH]c(NCCCc3cnc[nH]3)nc2c1,1.78
6,COc1ccc2[nH]c(NCCc3c[nH]cn3)nc2c1,1.43
7,CCCCc1ccc2[nH]c(NCCCc3c[nH]cn3)nc2c1,3.93
8,Nc1ccc2[nH]c(NCCCc3c[nH]cn3)nc2c1,0.17
9,c1ccc2[nH]c(NCCc3c[nH]cn3)nc2c1,1.49
10,Nc1ccc2[nH]c(NCCc3c[nH]cn3)nc2c1,0.01
